Values after ≈ are worked out from the molar mass of the structure shown.
Experiments:
[1] = target: T1, E. coli K12 PBP3 (Escherichia coli, UniProt P0AD68); assay: biochemical; type: binding
T1 construct: made in house
Outline: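 Fluorescence polarization (ex 490/em 520 nm) competition of inhibitors against Bocillin-FL at 0.1 μM, read up to 60 min. Final PBP levels: E. coli PBP3 1.5 μM; A. baumannii PBP2 2.5 μM, PBP3 0.2 μM in Tris pH 8.0/NaCl/glycerol/Tween 20; N. gonorrhoeae PBP2 […] in Hepes pH 8.0/NaCl/glycerol. EC50 = concentration halving PBP-bound Bocillin-FL.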

[2] = system: E. coli ATCC 25922; assay: Broth microdilution MIC in CAMHB; type: cell-based; details: Escherichia coli, ATCC25922; MHB; E. coli ATCC 25922; read-out: Minimum Inhibitory Concentration, E. coli 25922
Protocol: (§1) Example III: In Vitro Antibacterial Assays
(§2) To determine the ability of test compounds to inhibit the growth of bacterial strains, classic cell based broth microdilution minimum inhibitory concentration (MIC) assays were employed. MIC assays are performed according to CLSI methods except where otherwise noted (CLSI, 2018 and CLSI, 2019). The reference type strain E. coli ATCC 25922; the wild-type parent strain E. coli AG100; the hyper-permeable E. coli 901C and E. coli D22; and the E. coli AG100A strain lacking the acrAB efflux pump encoding genes were used to determine the ability of the PBP inhibitors to penetrate the outer membrane of gram-negative bacteria and inhibit bacterial growth. […] The P. aeruginosa ATCC 27853 and A. baumannii ATCC 19606, along with the hyper-permeable P. aeruginosa ATCC 35151 and an engineered efflux pump-compromised strain of P. aeruginosa (ΔmexAB-oprM) were used to determine the ability of PBP inhibitors to penetrate the outer membrane of P. aeruginosa and A. baumannii and assess antibacterial activity against these important gram-negative organisms.
(§3) Briefly, cryo-preserved bacterial cultures of challenge strains are streaked for isolation on appropriate agar medium, in this case cation-adjusted Mueller Hinton agar. Following incubation to allow growth of the colonies, plates are sealed with parafilm and stored refrigerated for up to two weeks. For preparation of assay inoculum and to ensure low variability, at least 5 colonies are picked from the agar plates with an inoculating loop and aseptically transferred to a culture tube containing 3 mL of cation-adjusted Mueller Hinton broth (CAMHB). The broth culture is grown for 3-5 hours at 37° C. with shaking at 200 rpm. Meanwhile, 2-fold serial dilutions of test compounds are conducted in a 96-well plate with a final volume of 75 μL per well at 2-fold the final desired concentration. After the dilution plates are set up the growing cultures are then diluted in a cuvette containing CAMHB and the optical density is measured at 600 nm. The inoculum is diluted such that 75 μL of this culture in CAMHB results in a starting bacterial concentration of 2-8×10^5 CFU/mL when added to the dilution plates. The plates are incubated for 16-20 hours for Enterobacteriaceae and Pseudomonas and 20-24 hours for Acinetobacter at 37° C. The MIC values are read visually as the lowest concentration well with no bacterial growth.

[3] = system: P. aeruginosa ATCC 27853; assay: Broth microdilution MIC in CAMHB; type: cell-based; details: Pseudomonas aeruginosa, ATCC27853; MHB; read-out: Minimum Inhibitory Concentration, P. aeruginosa ATCC 27853
Protocol: as §1, §2, §3

[4] = system: E. coli D22; assay: Broth microdilution MIC in CAMHB; type: cell-based; details: Escherichia coli; MHB; hyper-permeable E. coli D22; read-out: Minimum Inhibitory Concentration, E. coli D22
Protocol: as §1, §2, §3

[5] = system: A. baumannii ATCC 19606; assay: Broth microdilution MIC in CAMHB; type: cell-based; details: Acinetobacter baumannii, ATCC19606; MHB; read-out: Minimum Inhibitory Concentration, A. baumannii ATCC 19606
Protocol: as §1, §2, §3

[6] = system: K. pneumoniae 848844 producing SHV-11 and KPC-2; assay: Broth microdilution MIC in CAMHB; type: cell-based; details: Klebsiella pneumoniae, read-out: Minimum Inhibitory Concentration, K. pneumoniae 848844
Protocol: as §1, §2, §3

[7] = system: P. aeruginosa (ΔmexAB-oprM); assay: Broth microdilution MIC in CAMHB; type: cell-based; details: Pseudomonas aeruginosa, read-out: Minimum Inhibitory Concentration, P. aeruginosa ΔmexAB-OprM
Protocol: as §1, §2, §3

[8] = system: K. pneumoniae UMM producing SHV-5 and KPC-2; assay: Broth microdilution MIC in CAMHB; type: cell-based; details: Klebsiella pneumoniae, read-out: Minimum Inhibitory Concentration, K. pneumoniae UMM
Protocol: as §1, §2, §3

[9] = system: K. pneumoniae SI-117 producing VIM-1; assay: Broth microdilution MIC in CAMHB; type: cell-based; details: Klebsiella pneumoniae, read-out: Minimum Inhibitory Concentration, K. pneumoniae SI-117
Protocol: as §1, §2, §3

[10] = system: E. coli 901C; assay: Broth microdilution MIC in CAMHB; type: cell-based; details: Escherichia coli; MHB; hyper-permeable E. coli 901C; read-out: Minimum Inhibitory Concentration, E. coli 901C
Protocol: as §1, §2, §3

[11] = system: P. aeruginosa ATCC 35151; assay: Broth microdilution MIC in CAMHB; type: cell-based; details: Pseudomonas aeruginosa, ATCC35151; MHB; hyper-permeable strain; read-out: Minimum Inhibitory Concentration, P. aeruginosa ATCC 35151
Protocol: as §1, §2, §3

[12] = system: E. coli AG100; assay: Broth microdilution MIC in CAMHB; type: cell-based; details: Escherichia coli; MHB; wild-type parent strain E. coli AG100; read-out: Minimum Inhibitory Concentration, E. coli AG100
Protocol: as §1, §2, §3

[13] = system: E. coli AG100A; assay: Broth microdilution MIC in CAMHB; type: cell-based; details: Escherichia coli, read-out: Minimum Inhibitory Concentration, E. coli AG100A
Protocol: as §1, §2, §3

[14] = target: T2, P. aeruginosa PBP3 (Pseudomonas aeruginosa, UniProt G3XD46); assay: Bocillin-FL fluorescence polarization competition binding assay, P. aeruginosa PBP3; details: fluorescence polarization competition binding assay using Bocillin-FL
T2 construct: made in house
Outline: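 Binding of boronic acid inhibitors to purified Pseudomonas aeruginosa (PA01) PBP3 was measured by fluorescence polarization competition with Bocillin-FL, a fluorescent penicillin V. Reactions of 80 μl contained 0.75 μM PBP3 and 0.1 μM Bocillin-FL in 50 mM Hepes (pH 8.0), 300 mM NaCl and 5% (v/v) glycerol, in black 384-well plates. FP (Excitation 490 nm, Emission 520 nm) was read for up to 60 minutes. EC50 is the concentration that halves PBP-bound Bocillin-FL.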

[15] = system: N. gonorrhoeae WHO L; assay: Liquid broth MIC in Fastidious broth; type: cell-based; details: Neisseria gonorrhoeae; N. gonorrhoeae strain WHO L; Fastidious broth; read-out: Minimum Inhibitory Concentration, N. gonorrhoeae WHO L
Protocol: (§4) Example V: In Vitro Antibacterial Assays for N. gonorrhoeae Strains
(§5) Additional antibacterial testing of the series was performed in 8 reference strains of N. gonorrhoeae (ATCC 49226, FA1090, WHO G, WHO L, WHO K, H041, WHO Z, and WHO Q). ATCC 49226, FA1090, WHO G, and WHO L produce wild type or wild-type like PBP2. WHO K, H041, WHO Z, and WHO Q produce mosaic PBP2. Liquid broth-based assays were used for antibacterial testing of PBP inhibitors in Neisseria gonorrhoeae. Briefly, cryo-preserved bacterial cultures of clinical strains were streaked for isolation on Chocolate Agar (72 g/L (2×) GC Agar Base (BD #228950) and 2% (2×) Hemoglobin was autoclaved at 121° C. for 20 minutes to sterilize. Once cooled to ˜50° C. the 2× GC Agar Base and 2× Hemoglobin solutions are combined and 1% IsoVitaleX Enrichment (BD #211876) was added to the solution). Strains were incubated at 36° C. and 5% CO2 to allow growth of colonies, 24 hours before inoculum preparation. 2-fold serial dilutions of test compounds were conducted in a 96 well plate with a final volume of 75 μL per well at 2-fold the final desired concentration in Fastidious broth (Remel #R07664). For preparation of assay inoculum, a direct suspension was prepared by aseptically swabbing all colonies from agar plates into culture tubes containing 2 mL of fresh sterile saline. After the dilution plates were set up, direct suspensions were then diluted in a cuvette containing sterile saline and the optical density was measured at 600 nm. Inocula were diluted such that 75 μL of this culture in Fastidious broth results in a starting bacterial concentration of 5×10^5 CFU/mL when added to the dilution plates. The plates were incubated for ˜24 hours at 36° C. and 5% CO2. The MIC was read visually as the lowest concentration well with <10% bacterial growth compared to wells of full growth.

[16] = system: N. gonorrhoeae H041; assay: Liquid broth MIC in Fastidious broth; type: cell-based; details: Neisseria gonorrhoeae, H041, read-out: Minimum Inhibitory Concentration, N. gonorrhoeae H041
Protocol: as §4, §5

[17] = system: N. gonorrhoeae WHO G; assay: Liquid broth MIC in Fastidious broth; type: cell-based; details: Neisseria gonorrhoeae; N. gonorrhoeae strain WHO G; Fastidious broth; read-out: Minimum Inhibitory Concentration, N. gonorrhoeae WHO G
Protocol: as §4, §5

[18] = system: N. gonorrhoeae FA1090; assay: Liquid broth MIC in Fastidious broth; type: cell-based; details: Neisseria gonorrhoeae; N. gonorrhoeae strain FA1090; Fastidious broth; read-out: Minimum Inhibitory Concentration, N. gonorrhoeae FA1090
Protocol: as §4, §5

[19] = system: N. gonorrhoeae ATCC 49226; assay: Liquid broth MIC in Fastidious broth; type: cell-based; details: Neisseria gonorrhoeae, ATCC49226; N. gonorrhoeae strain ATCC 49226; Fastidious broth; read-out: Minimum Inhibitory Concentration, N. gonorrhoeae ATCC 49226
Protocol: as §4, §5

[20] = system: N. gonorrhoeae WHO K; assay: Liquid broth MIC in Fastidious broth; type: cell-based; details: Neisseria gonorrhoeae, read-out: Minimum Inhibitory Concentration, N. gonorrhoeae WHO K
Protocol: as §4, §5

[21] = system: N. gonorrhoeae WHO Z; assay: Liquid broth MIC in Fastidious broth; type: cell-based; details: Neisseria gonorrhoeae, read-out: Minimum Inhibitory Concentration, N. gonorrhoeae WHO Z
Protocol: as §4, §5

T1 sequence (P0AD68 1-577): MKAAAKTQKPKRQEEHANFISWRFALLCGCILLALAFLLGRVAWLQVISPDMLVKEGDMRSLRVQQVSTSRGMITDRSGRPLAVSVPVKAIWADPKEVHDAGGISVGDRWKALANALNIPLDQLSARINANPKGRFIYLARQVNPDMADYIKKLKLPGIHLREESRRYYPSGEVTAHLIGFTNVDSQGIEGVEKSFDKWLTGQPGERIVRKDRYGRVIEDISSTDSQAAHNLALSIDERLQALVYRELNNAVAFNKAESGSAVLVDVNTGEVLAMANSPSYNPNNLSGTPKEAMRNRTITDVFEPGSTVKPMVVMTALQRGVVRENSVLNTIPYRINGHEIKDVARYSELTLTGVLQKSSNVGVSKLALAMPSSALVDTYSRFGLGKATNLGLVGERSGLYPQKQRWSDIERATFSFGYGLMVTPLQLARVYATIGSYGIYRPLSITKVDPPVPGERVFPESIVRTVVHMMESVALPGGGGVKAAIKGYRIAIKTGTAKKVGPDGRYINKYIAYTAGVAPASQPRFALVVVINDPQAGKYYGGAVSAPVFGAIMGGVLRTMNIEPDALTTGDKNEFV
T2 sequence (G3XD46 whole entry): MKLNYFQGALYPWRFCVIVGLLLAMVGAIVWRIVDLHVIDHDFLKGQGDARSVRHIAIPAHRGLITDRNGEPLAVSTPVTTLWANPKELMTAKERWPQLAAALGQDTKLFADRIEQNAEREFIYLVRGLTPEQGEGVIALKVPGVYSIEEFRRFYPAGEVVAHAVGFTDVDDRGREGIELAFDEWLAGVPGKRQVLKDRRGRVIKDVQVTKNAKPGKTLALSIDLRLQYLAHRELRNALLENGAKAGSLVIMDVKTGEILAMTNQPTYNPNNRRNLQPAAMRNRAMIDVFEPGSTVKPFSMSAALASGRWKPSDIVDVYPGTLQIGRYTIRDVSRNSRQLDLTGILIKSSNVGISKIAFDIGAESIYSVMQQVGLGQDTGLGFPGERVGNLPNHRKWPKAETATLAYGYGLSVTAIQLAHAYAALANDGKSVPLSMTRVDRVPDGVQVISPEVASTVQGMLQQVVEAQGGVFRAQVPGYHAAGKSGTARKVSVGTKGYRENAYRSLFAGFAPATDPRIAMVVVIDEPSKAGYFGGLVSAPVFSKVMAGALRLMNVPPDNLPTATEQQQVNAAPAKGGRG

## NCCN1CCCN(C(=O)N[C@@H](C(=O)N[C@H]2Cc3cccc(C(=O)O)c3OB2O)c2c(F)cc(O)cc2F)C1=O (single isomer, unassigned) [Example 230]
[1]
  EC50: 30 to 500 µM
[2]
  MIC: > 128 µg/mL
[3]
  MIC: > 128 µg/mL
[4]
  MIC: > 128 µg/mL
[5]
  MIC: > 128 µg/mL
[6]
  MIC: > 128 µg/mL
[7]
  MIC: 32 to 64 µg/mL (≈ 57 to 114 µM)
[8]
  MIC: 2 to 4 µg/mL (≈ 3.56 to 7.13 µM)
[9]
  MIC: 32 to 64 µg/mL (≈ 57 to 114 µM)
[10]
  MIC: > 128 µg/mL
[11]
  MIC: 2 to 4 µg/mL (≈ 3.56 to 7.13 µM)
[12]
  MIC: > 128 µg/mL
[13]
  MIC: > 128 µg/mL
[14]
  P. aeruginosa PBP3 Potency: C (C represents a potency between 10 and 30 μM)

## CC(C)(C)[C@@H](NC(=O)c1c(F)cc(O)c(O)c1Cl)C(=O)N[C@H]1Cc2ccc(F)c(C(=O)O)c2OB1O [Example 12, (R)-3-((R)-2-(2-chloro-6-fluoro-3,4-dihydroxybenzamido)-3,3-dimethylbutanamido)-7-fluoro-2-hydroxy-3,4-dihydro-2H-benzo[e][1,2]oxaborinine-8-carboxylic acid]
[1]
  EC50: 30 to 500 µM
[15]
  MIC: > 64 µg/mL
[16]
  MIC: > 64 µg/mL
[17]
  MIC: > 64 µg/mL
[18]
  MIC: > 64 µg/mL
[19]
  MIC: > 64 µg/mL
[20]
  MIC: > 64 µg/mL
[21]
  MIC: > 64 µg/mL
